{
  "source": "ChEMBL document CHEMBL1132600",
  "about": "(J Med Chem, 1999)",
  "data": [
    {"biological_target": "Cannabinoid receptor 1 (Rattus norvegicus, UniProt P20272)", "sequence (P20272 whole entry)": "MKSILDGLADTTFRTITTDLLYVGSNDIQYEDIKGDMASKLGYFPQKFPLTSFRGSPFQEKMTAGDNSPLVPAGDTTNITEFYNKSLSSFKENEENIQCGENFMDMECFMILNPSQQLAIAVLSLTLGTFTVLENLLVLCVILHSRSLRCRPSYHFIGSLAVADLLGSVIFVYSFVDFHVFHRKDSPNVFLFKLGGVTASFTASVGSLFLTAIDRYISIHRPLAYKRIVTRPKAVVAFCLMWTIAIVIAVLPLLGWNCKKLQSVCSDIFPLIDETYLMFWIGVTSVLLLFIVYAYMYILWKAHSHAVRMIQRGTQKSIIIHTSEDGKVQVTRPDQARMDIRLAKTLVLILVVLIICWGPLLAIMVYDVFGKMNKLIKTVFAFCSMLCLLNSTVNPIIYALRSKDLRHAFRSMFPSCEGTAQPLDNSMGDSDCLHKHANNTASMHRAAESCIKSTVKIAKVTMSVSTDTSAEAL", "test": "Tested for binding affinity to Cannabinoid receptor 1", "units": {"Ki": "nM"}, "values": [
      {"smiles": "CCCCC/C=C\\C/C=C\\C/C=C\\C/C=C\\CCCC(=O)N(C)CCO", "Ki": 4980},
      {"smiles": "CCCCC/C=C\\C/C=C\\C/C=C\\C/C=C\\CCCC(=O)NC(C)(C)CO", "Ki": 151},
      {"smiles": "CCCCCCCC/C=C\\CCCCCCCC(=O)N[C@@H](C)CO", "Ki": "> 10000"},
      {"smiles": "CCCCC/C=C\\C/C=C\\C/C=C\\C/C=C\\CCCC(=O)Nc1ccc(CO)cc1", "Ki": "> 3000"},
      {"smiles": "CCCCC/C=C\\C/C=C\\C/C=C\\C/C=C\\CCCC(=O)NC1CCC(O)CC1", "note": "(stereo not drawn)", "Ki": 217},
      {"smiles": "CCCCC/C=C\\C/C=C\\C/C=C\\C/C=C\\CCCC(=O)NC[C@H](C)O", "Ki": 26},
      {"smiles": "CCCCC/C=C\\C/C=C\\C/C=C\\C/C=C\\CCCC(=O)NC[C@@H](C)O", "Ki": 119},
      {"smiles": "CCCCC/C=C\\C/C=C\\CCCCCCCC(=O)N[C@@H](C)CO", "Ki": "> 10000"},
      {"smiles": "CCCCC/C=C\\C/C=C\\C/C=C\\C/C=C\\CCC(C)(C)C(=O)NCCO", "Ki": 72.2},
      {"smiles": "CCCCC/C=C\\C/C=C\\C/C=C\\C/C=C\\CCCC(=O)NCCF", "Ki": 8.6},
      {"smiles": "CCCCC/C=C\\C/C=C\\C/C=C\\C/C=C\\CCCC(N)=O", "note": "[ARACHIDONAMIDE]", "Ki": 9600},
      {"smiles": "CCCCCCCCCCCCCCCCCC(=O)NCCO", "note": "[N-(2-HYDROXYETHYL)STEARAMIDE]", "Ki": 217},
      {"smiles": "CCCCCCCC/C=C\\CCCCCCCC(=O)NCCO", "note": "[OLEOYLETHANOLAMIDE]", "Ki": "> 10000"}
    ]}
  ]
}
